From patent publication US11602514B2, “Medicament having anti-inflammatory bowel disease function, and preparation method therefor and application thereof” (SUZHOU PHARMAVAN CO., LTD, priority 2018, dated 2023)
“Also recorded” adds a separate entry of the source.

Tests used:
[1] = test system: mouse macrophages RAW264.7; assay: effect on proliferation activity of mouse macrophages RAW264.7; assay type: cell-based; details: n=3, FIG. 4
[2] = test system: COX2 protein expressed by mouse macrophages RAW264.7; assay: COX2 protein expression in LPS-induced RAW264.7 macrophages (blot); assay type: cell-based; details: FIG. 8
Description: (§1) Effects of myricanol derivatives on the expression of inflammatory factors such as IL-6, TNF-α, PEG2 secreted by a mouse macrophage cell strain RAW 264.7 induced by bacterial lipopolysaccharide (hereinafter referred to as LPS) stimulus: A pre-prepared cell suspension was inoculated in a 96-well plate at 15000 cells/well and 100 μl/well and cultured overnight in an incubator with 5% CO2 at 37° C. At 80% cell confluence, the original culture medium was discarded, and each well was added with 100 μl of prepared drug solution to be tested with a different concentration, cultured for 1 h, and then added with a LPS solution, where the final concentration of LPS in the culture system was 100 ng/mL. Each concentration was set with 3 parallel wells, and a cell control group (no drug and no solvent) and a blank medium control group (no cells, a well for zero adjustment) were set. They were cultured for another 24 h. Cell culture supernatants were aspirated, and an R&D ELISA detection kit (M6000B; MTA00B; VAL601) was used for detecting the expression of the inflammatory factors such as IL-6, TNF-α, and PEG2 in each group. Cell proteins were collected, and a […] method was used for detecting COX-2 protein expression in each group.

[3] = test system: PGE2 secreted by mouse macrophages RAW264.7 induced by LPS; assay: PGE2 secreted by LPS-induced RAW264.7 macrophages (ELISA); assay type: cell-based; details: for inhibition of PGE2 secreted by RAW264.7 induced by LPS: LPS 100 ng/mL, 24 h, FIGS. 7 and 9
Description: as §1

[4] = test system: IL-6 secreted by mouse macrophages RAW264.7 induced by LPS; assay: IL-6 secreted by LPS-induced RAW264.7 macrophages (ELISA); assay type: cell-based; details: LPS 100 ng/mL, 24 h; FIG. 5
Description: as §1

[5] = test system: SD rats; assay: acute toxicity, single oral dose; assay type: in vivo; details: single intragastric administration, 14 days observation
Description: Trial method: 30 SD rats, half male and half female, were used. The average weight was 160-200 g for female rats and 180-220 g for male rats when grouped. An individual weight should be within ±20% of the average weight. Before the test, animals needed to accommodate to the environment for at least 5 days, and healthy rats (female rats should be not pregnant) were selected as test animals. Matter detected during the accommodation period mainly was: whether the rats were consistent with quality indexes required in the order; detection of general conditions; and whether the weight was within the weight range required by the test. Unqualified abnormal animals were excluded from the test. A single dosage was orally administered to rats at a low, medium, or high dose. […] A control group was set with the oral administration of the same volume of solvent.
The rats were observed about 0-2 h and 4-6 h after each administration. If a toxicity symptom occurs, the rats may be observed more times. (2) Gross anatomical observation: on the 14th day of the test, all surviving rats in each group were dissected and observed, and for administration sites and gross dissection, abnormal organs and tissues which were observed and found to be potentially related to test samples were photographed and recorded. (3) Disposal of dying animals: status of rats and observation time were recorded, and their weights were measured. (4) Disposal of dead animals: the time of death or when a rat was found dead were recorded. The rat was measured for weight before quickly dissected for gross observation and speculated for a cause of death.

Compound	effect on proliferation activity of mouse macrophages RAW264.7 ([1]; 30 μM)	inhibition of protein expression of IBD-related COX2 [2]	inhibition of PGE2 secreted by RAW264.7 induced by LPS [3]	inhibition of LPS-induced IL-6 secretion of RAW264.7 cells [4]	other results
5-n-propoxy myricanol [compound B]	no significant effects	can inhibit	significant effect of inhibiting PGE2; also recorded: strong ability to inhibit	very strong effects of inhibiting	–
COc1c2cc(c(OC(C)=O)c1OC)CCCCC(O)CCc1ccc(OC(C)=O)c-2c1 (centres unmarked) [compound A, 5,17-diacetoxy myricanol]	–	can inhibit	significant effect of inhibiting PGE2; also recorded: strong ability to inhibit	very strong effects of inhibiting	effect on proliferation activity of mouse macrophages RAW264.7 ([1]; 40 μM): no significant effects; Test Endpoint (toxic side effects) ([5]; 100 mg/kg): No obvious toxic; Test Endpoint (toxic side effects) ([5]; 300 mg/kg): No obvious toxic; Test Endpoint (toxic side effects) ([5]; 1000 mg/kg): No obvious toxic
COc1c2cc(c(OCc3ccccc3)c1OC)CCCCC(O)CCc1ccc(O)c-2c1 (centres unmarked) [compound C, 5-benzyloxy myricanol]	no significant effects	–	–	–	–
C=CCOc1ccc2cc1-c1cc(c(OCC=C)c(OC)c1OC)CCCCC(O)CC2 (centres unmarked) [compound D, 5,17-diallyloxy myricanol]	no significant effects	–	–	–	–
C=CCOc1c2cc(c(OC)c1OC)-c1cc(ccc1O)CCC(O)CCCC2 (centres unmarked) [compound E, 5-allyloxy myricanol]	no significant effects	–	–	–	–
C=CCOc1ccc2cc1-c1cc(c(OCC=C)c(OC)c1OC)CCCCC(=O)CC2 [compound F, 5,17-allyloxy myricanone]	–	–	–	–	effect on proliferation activity of mouse macrophages RAW264.7 ([1]; 80 μM): no significant effects
COc1c2cc(c(OC(C)=O)c1OC)CCCCC(O)CCc1ccc(O)c-2c1 (centres unmarked) [compound G, 5-acetoxy myricanol]	–	can inhibit	significant effect of inhibiting PGE2; also recorded: strong ability to inhibit	very strong effects of inhibiting	effect on proliferation activity of mouse macrophages RAW264.7 ([1]; 40 μM): no significant effects; Test Endpoint (toxic side effects) ([5]; 100 mg/kg): No obvious toxic; Test Endpoint (toxic side effects) ([5]; 300 mg/kg): No obvious toxic; Test Endpoint (toxic side effects) ([5]; 1000 mg/kg): No obvious toxic; COX2 protein expression inhibition compared with myricanol [2]: better inhabitation effects than myricanol
COc1c2cc(c(O)c1OC)CCCC[C@@H](O)CCc1ccc(O)c-2c1 [myricanol, reference compound]	–	can inhibit	strong ability to inhibit	–	PGE2 ([3]; LPS + 20 μM, LPS alone 1154.90 ± 84.20, control −407.37 ± 57.67): 904.98 ± 18.02 pg/mL
